Columns and labels:
Conditions in all cases: 72 h
[1] = system: Calu-3; assay: cell viability relative to DMSO; higher = less toxic
[2] = system: Vero E6; assay: as above
[3] = system: U2OS; assay: as above
[4] = system: Caco-2; assay: as above
[5] = system: HepG2; assay: as above
[6] = system: Calu-3; assay: drug sensitivity score (DSS) for viability; higher = more toxic; extreme values may be limits of the assay
[7] = system: Vero E6; assay: as above
[8] = system: U2OS; assay: as above
[9] = system: Caco-2; assay: as above
[10] = system: HepG2; assay: as above
[11] = system: Calu-3; assay: relative viability EC50 (midpoint between 100% and the lowest measured viability); higher = less toxic
[12] = system: Vero E6; assay: as above
[13] = system: U2OS; assay: as above
[14] = system: Caco-2; assay: as above
[15] = system: HepG2; assay: as above

Compound | cell viability ([1]; 1 nM) [%] | cell viability ([1]; 10 nM) [%] | cell viability ([1]; 100 nM) [%] | cell viability ([1]; 1000 nM) [%] | cell viability ([1]; 10000 nM) [%] | cell viability ([2]; 1 nM) [%] | cell viability ([2]; 10 nM) [%] | cell viability ([2]; 100 nM) [%] | cell viability ([2]; 1000 nM) [%] | cell viability ([2]; 10000 nM) [%] | cell viability ([3]; 1 nM) [%] | cell viability ([3]; 10 nM) [%] | cell viability ([3]; 100 nM) [%] | cell viability ([3]; 1000 nM) [%] | cell viability ([3]; 10000 nM) [%] | cell viability ([4]; 1 nM) [%] | cell viability ([4]; 10 nM) [%] | cell viability ([4]; 100 nM) [%] | cell viability ([4]; 1000 nM) [%] | cell viability ([4]; 10000 nM) [%] | cell viability ([5]; 1 nM) [%] | cell viability ([5]; 10 nM) [%] | cell viability ([5]; 100 nM) [%] | cell viability ([5]; 1000 nM) [%] | cell viability ([5]; 10000 nM) [%] | drug sensitivity score [6] | drug sensitivity score [7] | drug sensitivity score [8] | drug sensitivity score [9] | drug sensitivity score [10] | relative viability EC50 [11] [µM] | relative viability EC50 [12] [µM] | relative viability EC50 [13] [µM] | relative viability EC50 [14] [µM] | relative viability EC50 [15] [µM]
Fc1ccc(C(OCCN2CCN(C/C=C/c3ccccc3)CC2)c2ccc(F)cc2)cc1 | 97.8 | 106 | 110 | 99.7 | 95.3 | 99.6 | 106 | 101 | 96 | 86.7 | 103 | 100 | 103 | 98.4 | 94.8 | 102 | 100 | 104 | 94.2 | 83.5 | 87.6 | 101 | 101 | 96.2 | 72.1 | 0 | 0.4 | 0 | 0.9 | 1.8 | > 10 | > 10 | > 10 | > 10 | 
O=C(Nc1ccncc1)c1cc([N+](=O)[O-])ccc1Cl |  |  |  |  |  | 102 | 97.3 | 89.4 | 88 | 93.1 | 99.5 | 104 | 99.7 | 106 | 93.2 | 102 | 86.1 | 97.9 | 96.3 | 85.5 | 103 | 91.3 | 105 | 86 | 99.4 |  | 0.9 | 0 | 0 | 0 |  | > 10 | > 10 | > 10 | > 10
Cc1sc2c(c1C)C(c1ccc(Cl)cc1)=N[C@@H](CC(=O)Nc1ccc(OCCOCCOCCOCCNc3cccc4c3C(=O)N(C3CCC(=O)NC3=O)C4=O)cc1)c1nnc(C)n1-2 (some centres not stated) [ARV-825] | 95.1 | 91.4 | 111 | 72 | 62.9 | 94.6 | 105 | 91 | 76.3 | 11 | 95.4 | 93.6 | 96.9 | 51 | 31.7 | 91.4 | 92.6 | 90.1 | 44 | 51.7 | 95.4 | 103 | 89.9 | 40.5 | 25.2 | 5 | 8.3 | 9.9 | 12 | 12.3 |  | 1.55 | 0.577 | 0.184 | 0.381
CC1(C)C[C@@H]1C(=O)N/C(=C\CCCCSC[C@H](N)C(=O)O)C(=O)O [Cilastatin Sodium] |  |  |  |  |  | 104 | 102 | 99.2 | 99.8 | 94.3 | 97.4 | 100 | 95.9 | 102 | 97.6 | 101 | 107 | 105 | 99 | 102 | 108 | 102 | 95.4 | 87.7 | 96.5 |  | 0 | 0 | 0 | 0.9 |  | > 10 | > 10 | > 10 | > 10
O=C1C=CC(=O)C2=C1C1c3ccccc3C2c2ccccc21 [INCA-6] | 98.2 | 99.3 | 96.7 | 95.7 | 104 | 93.3 | 96.7 | 87 | 96.1 | 105 | 98 | 93.7 | 98.2 | 97.5 | 88.2 | 97.5 | 93.5 | 94.5 | 96.6 | 90.1 | 102 | 112 | 96.8 | 106 | 68.5 | 0 | 0 | 0 | 0 | 1.1 | > 10 | > 10 | > 10 | > 10 | 
Cc1nn(C)c2nc(NNC(=O)Nc3cc(Cl)nc(Cl)c3)cc(C(C)C)c12 [JTE-013] | 101 | 101 | 97.5 | 110 | 92 | 99.1 | 105 | 95.7 | 100 | 93.9 | 107 | 100 | 99.4 | 93.6 | 92.9 | 96.7 | 100 | 105 | 100 | 82.4 | 97.8 | 93.1 | 104 | 95.6 | 74.2 | 0 | 0 | 0 | 0.4 | 1.7 | > 10 | > 10 | > 10 | > 10 | 
C[C@@H](NC(=O)c1ncnc(N)c1Cl)c1ncc(C(=O)Nc2cc(C(F)(F)F)c(Cl)cn2)s1 [MLN2480] |  |  |  |  |  | 95.4 | 104 | 111 | 108 | 108 | 102 | 101 | 103 | 102 | 95.4 | 101 | 96.4 | 103 | 103 | 91.5 | 102 | 102 | 101 | 91.9 | 57 |  | 0 | 0 | 0 | 3.5 |  | > 10 | > 10 | > 10 | 
Cc1ccc(S(=O)(=O)Nc2ccc3c(c2)c(C(=O)C(F)(F)F)cn3CC(=O)N[C@@H](CC(C)C)C(=O)O)cc1 [NTRC-824] | 88.4 | 101 | 94.2 | 102 | 93.5 | 96.9 | 98.1 | 100 | 94.7 | 95.4 | 102 | 109 | 102 | 102 | 95.3 | 94.7 | 103 | 95 | 102 | 89.7 |  |  |  |  |  | 0 | 0 | 0 | 0 |  | > 10 | > 10 | > 10 | > 10 | 

From the supplement of paper PMC13380429
